Structures can show the parent of a compound that is named as a salt.
What was measured:
[1] = system: DMBA induced mammary carcinoma; test: DMBA induced mammary carcinoma in rats, tumor size; assay type: in vivo, Sprague-Dawley female rats; details: rat
Method: Rats were treated either with vehicle (control), 17α-dihydroequilin sulfate, or tamoxifen. In addition, one group of rats were ovariectomized after tumor development and then treated with vehicle. The animals were treated for a 4 week period. Tumor volumes were measured weekly.

[2] = system: MCF-7 (estrogen receptor positive) human breast cancer cell line; test: Cell cycle phase distribution by flow cytometric DNA analysis in MCF-7 cells; assay type: cell-based; details: for shift of cells from the resting G1 phase to the proliferative S phase (estrogenic activity): compound alone, 0.1 μM; for prevention of E2 induced proliferation (shift from G1 to S phase): in combination with E2; for % G1 / % G2/M / % S: 24 hours
Method: (§1) In the in vitro standard pharmacological test procedure, 17α-dihydroequilin was evaluated as a representative compound in MCF-7 (estrogen receptor positive) and […] (estrogen receptor negative) human breast cancer cell lines to determine the effect of the compounds of this invention on cell proliferation as measured by the percent of the cells present in the G1, S, and G2/M phases of the cell cycle. Briefly, the cell lines were plated in T-25 tissue culture flasks at an initial density of between 50,000 and 100,000 cells/flask and incubated for a period of 24 hours in phenol-red free IMEM medium supplemented with dextran-coated-charcoal stripped fetal bovine serum (10%), glutamine (5 mg/mL) and gentamycin sulfate (2 mg/mL).

[3] = system: MDA-231 (estrogen receptor negative) human breast cancer cell line; test: Cell cycle phase distribution by flow cytometric DNA analysis in MDA-231 cells; assay type: cell-based; details: for % G1 / % G2/M / % S: 24 hours
Method: as §1

[4] = rat; 200 μg/day for 3 weeks; cited from earlier work
[5] = system: estrogen receptor positive MCF-7 human breast cancer cells; details: prevents cells from entering the S phase; cited from earlier work
[6] = test compound (0.1 nM) in combination with E2 (1 nM)

Structure (SMILES): C[C@]12CC[C@H]3C(=CCc4cc(OS(=O)(=O)O)ccc43)[C@@H]1CC[C@H]2O [17α-DHEQ-S, 17α-Dihydroequilin sulfate]
- percent change of tumor size from week 0, Week 1 ([1]; daily dose 0.5 mg/kg): 47.2%
- percent change of tumor size from week 0, Week 2 ([1]; daily dose 0.5 mg/kg): 75.9%
- percent change of tumor size from week 0, Week 3 ([1]; daily dose 0.5 mg/kg): 59.4%
- percent change of tumor size from week 0, Week 4 ([1]; daily dose 0.5 mg/kg): 111.6%
- percent change of tumor size from week 0, Week 1 ([1]; daily dose 5.0 mg/kg): −18.2%
- percent change of tumor size from week 0, Week 2 ([1]; daily dose 5.0 mg/kg): −21.2%
- percent change of tumor size from week 0, Week 3 ([1]; daily dose 5.0 mg/kg): −8.2%
- percent change of tumor size from week 0, Week 4 ([1]; daily dose 5.0 mg/kg): 3.1%
- percent change of tumor size from week 0, Week 1 ([1]; daily dose 25.0 mg/kg): −49.7%
- percent change of tumor size from week 0, Week 3 ([1]; daily dose 25.0 mg/kg): −51.2%
- percent change of tumor size from week 0, Week 4 ([1]; daily dose 25.0 mg/kg): −46.7%

Structure (SMILES): C[C@]12CC[C@H]3C(=CCc4cc(O)ccc43)[C@@H]1CC[C@H]2O [17α-dihydroequilin]
- shift of cells from the resting G1 phase to the proliferative S phase (estrogenic activity) [2]: did not cause a shift of cells from the resting G1 phase to the proliferative S phase
- prevention of E2 induced proliferation (shift from G1 to S phase) [2]: prevented the E2 induced proliferation
- % G1 [2, 6]: 42%
- % G2/M [2, 6]: 15%
- % S [2, 6]: 42%
- % G1 [3, 6]: 26%
- % G2/M [3, 6]: 13%
- % S [3, 6]: 60%

Structure (SMILES): C[C@]12CC[C@@H]3c4ccc(O)cc4CC[C@H]3[C@@H]1CC[C@@H]2O [E2, 17β-estradiol]
- shift of cells from the G1 phase to the S phase (cell proliferation) ([2]; E2 alone): caused cell proliferation
- % G1 ([2]; E2 alone): 29%
- % G2/M ([2]; E2 alone): 5%
- % S ([2]; E2 alone): 66%
- shift of cells from the G1 phase to the S phase (cell proliferation) ([3]; E2 alone): this shift was not observed
- % G1 ([3]; E2 alone): 38%
- % G2/M ([3]; E2 alone): 17%
- % S ([3]; E2 alone): 45%

Structure (SMILES): CC/C(=C(\c1ccccc1)c1ccc(OCCN(C)C)cc1)c1ccccc1 [Tamoxifen, Z-1-(4β-dimethylaminoethoxyphenyl) 1,2-diphenyl but-1-ene citratel]
- accumulation of administered [3H]-E2 in tissue [4]: prevents the accumulation of administered [^3H]-E2 in uterine, vaginal, and mammary tumor tissue
- shift of cells from the resting G1 phase to the proliferative S phase (estrogenic activity) [2]: A similar result was observed
- prevention of E2 induced proliferation (shift from G1 to S phase) [2]: A similar result was obtained
- % G1 [2, 6]: 40%
- % G2/M [2, 6]: 14%
- % S [2, 6]: 46%
- inhibition of E2 stimulated cell growth [5]: inhibit cell E2 stimulated cell growth
- reduction in tumor size (in words) ([1]; 4 week treatment): caused a reduction in tumor size
- percent change of tumor size from week 0, Week 2 ([1]; daily dose 2.0 mg/kg): −18.7%
- percent change of tumor size from week 0, Week 3 ([1]; daily dose 2.0 mg/kg): −28.5%
- percent change of tumor size from week 0, Week 4 ([1]; daily dose 2.0 mg/kg): −20.1%
- % G1 [3, 6]: 28%
- % G2/M [3, 6]: 14%
- % S [3, 6]: 58%
